Source: patent US8568755B2 (priority 2007, dated 2013)
Several values for one entry are separate records, joined by “and”; a condition that tells them apart may be missing. Identical values can stand only once. Counter-ions that a name gives are not always drawn. Like-named read-outs stand apart in the source and are kept apart here.

What was measured:
Erysiphe graminis = assay: Test on preventive effect against wheat powdery mildew (Test Example 1); type: in vivo
Sphaerotheca fuliginea = type: in vivo
[1] = partner fungicide alone 0.125 ppm
[2] = partner fungicide alone 0.5 ppm
[3] = partner fungicide alone 125 ppm
[4] = partner fungicide alone 250 ppm
[5] = partner fungicide alone 500 ppm

Fc1ccc([C@]2(Cn3cncn3)O[C@H]2c2ccccc2Cl)cc1 (racemic) [epoxiconazole]
diseased area ratio to non-treated section (Erysiphe graminis; fungicide (b) alone 0.5 ppm): 21.2 | diseased area ratio to non-treated section (Erysiphe graminis; fungicide (b) alone 1 ppm): 3.0

COc1cc(C)c(C(=O)c2c(Cl)cnc(Cl)c2C(F)(F)F)c(OC)c1OC [Compound A, 4-(2,3,4-trimethoxy-6-methylbenzoyl)-2,5-dichloro-3-trifluoromethylpyridine]
diseased area ratio to non-treated section (Erysiphe graminis; [1]): 65

COc1cc(C)c(C(=O)c2c(OC)cnc(Cl)c2C(F)(F)F)c(OC)c1OC [Compound B, 4-(2,3,4-trimethoxy-6-methylbenzoyl)-2-chloro-3-trifluoromethyl-5-methoxypyridine]
diseased area ratio to non-treated section (Erysiphe graminis; [1]): 50.0 | diseased area ratio to non-treated section (Erysiphe graminis; [2]): 30.0

COc1cc(C)c(C(=O)c2c(OC)ncc(Br)c2Cl)c(OC)c1OC [Compound C, 3-(2,3,4-trimethoxy-6-methylbenzoyl)-5-bromo-4-chloro-2-methoxypyridine]
diseased area ratio to non-treated section (Erysiphe graminis; [1]): 37.5 | diseased area ratio to non-treated section (Erysiphe graminis; [2]): 6.0

COc1cc(C)c(C(=O)c2c(OC)ncc(Cl)c2C)c(OC)c1OC [Compound D, 3-(2,3,4-trimethoxy-6-methylbenzoyl)-5-chloro-2-methoxy-4-methylpyridine]
diseased area ratio to non-treated section (Erysiphe graminis; partner fungicide alone 0.06 ppm): 27.5 | diseased area ratio to non-treated section (Erysiphe graminis; [1]): 15.0

CC(C)Oc1ccc(C(=O)C(C)(C)NC(=O)c2ncccc2C(F)(F)F)cc1 [Compound No. 7, N-[[4′-(2-propyloxy)-1,1-dimethyl]phenacyl]-3-trifluoromethyl-2-pyridinecarboxamide]
diseased area ratio to non-treated section (Erysiphe graminis; Compound (a) alone 8 ppm): 30.0 | diseased area ratio to non-treated section (Erysiphe graminis; Compound (a) alone 16 ppm): 25.0 | diseased area ratio to non-treated section (Erysiphe graminis; Compound (a) alone 31 ppm): 4.0

Cc1ccsc1C(=O)NC(C)(C)C(=O)c1ccc(Cl)c(Cl)c1 [No. 2]
diseased area ratio to non-treated section (Sphaerotheca fuliginea; Compound No.x alone 2 ppm): 70.0 | diseased area ratio to non-treated section (Sphaerotheca fuliginea; Compound No.x alone 4 ppm): 50.0 and 32.5

Cc1cc(OC(C)C)ccc1C(=O)C(C)(C)NC(=O)c1ncccc1C(F)(F)F [No. 4]
diseased area ratio to non-treated section (Erysiphe graminis; Compound No.x alone 16 ppm): 17.5 | diseased area ratio to non-treated section (Erysiphe graminis; Compound No.x alone 31 ppm): 17.5 | diseased area ratio to non-treated section (Erysiphe graminis; Compound No.x alone 63 ppm): 15.0 and 7.5 | diseased area ratio to non-treated section (Erysiphe graminis; Compound No.x alone 125 ppm): 5.0

CC(C)Oc1ccc(C(=O)C(C)(C)NC(=O)c2ncccc2C(F)(F)F)cc1 [No. 7]
diseased area ratio to non-treated section (Sphaerotheca fuliginea; Compound No.x alone 1 ppm): 81.3 | diseased area ratio to non-treated section (Sphaerotheca fuliginea; Compound No.x alone 2 ppm): 75.0 | diseased area ratio to non-treated section (Sphaerotheca fuliginea; Compound No.x alone 4 ppm): 56.3

CO/C=C(/C(=O)OC)c1ccccc1Oc1cc(Oc2ccccc2C#N)ncn1 [azoxystrobin]
diseased area ratio to non-treated section (Sphaerotheca fuliginea; partner fungicide alone 31 ppm): 37.5 and 55.0 | diseased area ratio to non-treated section (Sphaerotheca fuliginea; partner fungicide alone 63 ppm): 35.0 and 55.0 | diseased area ratio to non-treated section (Sphaerotheca fuliginea; [3]): 35.0

N#Cc1c(Cl)c(Cl)c(Cl)c(C#N)c1Cl [chlorothalonil]
diseased area ratio to non-treated section (Sphaerotheca fuliginea; partner fungicide alone 4 ppm): 77.5 | diseased area ratio to non-treated section (Sphaerotheca fuliginea; partner fungicide alone 16 ppm): 37.5

CC(=O)c1c(C)c(C)nc2c(F)cc(C(C)(C)C)cc12 [compound β, 2,3-dimethyl-6-t-butyl-8-fluoro-4-acetylquinoline]
diseased area ratio to non-treated section (Erysiphe graminis; fungicide (b) alone 10 ppm): 95.0

[Cl-].[Cu+2].[Cu+2].[OH-].[OH-].[OH-] [copper oxychloride]
diseased area ratio to non-treated section (Sphaerotheca fuliginea; [4]): 25.0 | diseased area ratio to non-treated section (Sphaerotheca fuliginea; [5]): 21.9 | diseased area ratio to non-treated section (Sphaerotheca fuliginea; partner fungicide alone 1000 ppm): 20.7 and 20.6

Cc1ccc(-c2c(Cl)nc(C#N)n2S(=O)(=O)N(C)C)cc1 [cyazofamid, reference compound]
diseased area ratio to non-treated section (Sphaerotheca fuliginea; fungicide (b) alone 63 ppm): 80.0 | diseased area ratio to non-treated section (Sphaerotheca fuliginea; fungicide (b) alone 125 ppm): 57.5 | diseased area ratio to non-treated section (Sphaerotheca fuliginea; partner fungicide alone 63 ppm): 70.0 | diseased area ratio to non-treated section (Sphaerotheca fuliginea; [3]): 57.5

CC(C1CC1)C(O)(Cn1cncn1)c1ccc(Cl)cc1 (stereo not drawn) [cyproconazole]
diseased area ratio to non-treated section (Erysiphe graminis; fungicide (b) alone 0.125 ppm): 97.5 | diseased area ratio to non-treated section (Erysiphe graminis; fungicide (b) alone 0.5 ppm): 60.0

Cc1cc(C2CC2)nc(Nc2ccccc2)n1 [cyprodinil]
diseased area ratio to non-treated section (Erysiphe graminis; fungicide (b) alone 31 ppm): 75.0 | diseased area ratio to non-treated section (Erysiphe graminis; fungicide (b) alone 63 ppm): 70.0 | diseased area ratio to non-treated section (Erysiphe graminis; fungicide (b) alone 125 ppm): 32.5

CC1COC(Cn2cncn2)(c2ccc(Oc3ccc(Cl)cc3)cc2Cl)O1 (stereo not drawn) [difenoconazole]
diseased area ratio to non-treated section (Sphaerotheca fuliginea; partner fungicide alone 8 ppm): 31.3 | diseased area ratio to non-treated section (Sphaerotheca fuliginea; partner fungicide alone 16 ppm): 9.4 | diseased area ratio to non-treated section (Sphaerotheca fuliginea; partner fungicide alone 31 ppm): 8.1

COc1ccc(C(=CC(=O)N2CCOCC2)c2ccc(Cl)cc2)cc1OC [dimethomorph]
diseased area ratio to non-treated section (experimental value) (Sphaerotheca fuliginea; single use at 500 ppm): 95.0

CNC(=O)/C(=N/OC)c1ccccc1COc1cc(C)ccc1C [dimoxystrobin]
diseased area ratio to non-treated section (Erysiphe graminis; fungicide (b) alone 5 ppm): 5.0

CC1(C(=O)Nc2ccc(O)c(Cl)c2Cl)CCCCC1 [fenhexamid]
diseased area ratio to non-treated section (Sphaerotheca fuliginea; [3]): 52.5 | diseased area ratio to non-treated section (Sphaerotheca fuliginea; [4]): 52.5 | diseased area ratio to non-treated section (Sphaerotheca fuliginea; [5]): 50.0

CC(Cc1ccc(C(C)(C)C)cc1)CN1CCCCC1 (stereo not drawn) [fenpropidin]
diseased area ratio to non-treated section (Erysiphe graminis; fungicide (b) alone 12.5 ppm): 27.5 | diseased area ratio to non-treated section (Erysiphe graminis; fungicide (b) alone 25 ppm): 2.0 | diseased area ratio to non-treated section (Erysiphe graminis; fungicide (b) alone 50 ppm): 1.0

CC(Cc1ccc(C(C)(C)C)cc1)CN1C[C@@H](C)O[C@@H](C)C1 (stereo partly drawn) [fenpropimorph]
diseased area ratio to non-treated section (Erysiphe graminis; fungicide (b) alone 12.5 ppm): 36.4 | diseased area ratio to non-treated section (Erysiphe graminis; fungicide (b) alone 25 ppm): 9.1

N#Cc1c[nH]cc1-c1cccc2c1OC(F)(F)O2 [fludioxonil]
diseased area ratio to non-treated section (Erysiphe graminis; fungicide (b) alone 125 ppm): 95.0 | diseased area ratio to non-treated section (Erysiphe graminis; fungicide (b) alone 250 ppm): 90.0 | diseased area ratio to non-treated section (Erysiphe graminis; fungicide (b) alone 500 ppm): 85.0

CC(C)Oc1cccc(NC(=O)c2ccccc2C(F)(F)F)c1 [flutolanil]
diseased area ratio to non-treated section (Erysiphe graminis; fungicide (b) alone 500 ppm): 7.5 | diseased area ratio to non-treated section (Erysiphe graminis; fungicide (b) alone 1000 ppm): 12.5

O=C1c2ccccc2C(=O)N1SC(Cl)(Cl)Cl [folpet]
diseased area ratio to non-treated section (Sphaerotheca fuliginea; [3]): 84.4 | diseased area ratio to non-treated section (Sphaerotheca fuliginea; [4]): 84.4 | diseased area ratio to non-treated section (Sphaerotheca fuliginea; [5]): 81.3

CCO[PH](=O)O [fosetyl-Al]
diseased area ratio to non-treated section (Erysiphe graminis; fungicide (b) alone 500 ppm): 97.5 | diseased area ratio to non-treated section (Erysiphe graminis; fungicide (b) alone 1000 ppm): 97.5

CCCCC(O)(Cn1cncn1)c1ccc(Cl)cc1Cl (stereo not drawn) [hexaconazole]
diseased area ratio to non-treated section (Sphaerotheca fuliginea; partner fungicide alone 2 ppm): 95.0 | diseased area ratio to non-treated section (Sphaerotheca fuliginea; partner fungicide alone 4 ppm): 85.0 | diseased area ratio to non-treated section (Sphaerotheca fuliginea; partner fungicide alone 8 ppm): 75.0

Cc1cc(O)no1 [hymexazol]
diseased area ratio to non-treated section (Sphaerotheca fuliginea; partner fungicide alone 100 ppm): 95.0

N=C(N)NCCCCCCCCNCCCCCCCCNC(=N)N [iminoctadine]
diseased area ratio to non-treated section (Sphaerotheca fuliginea; partner fungicide alone 4 ppm): 65.0 | diseased area ratio to non-treated section (Sphaerotheca fuliginea; partner fungicide alone 8 ppm): 45.0 | diseased area ratio to non-treated section (Sphaerotheca fuliginea; partner fungicide alone 16 ppm): 30.0

CC(C)NC(=O)N1CC(=O)N(c2cc(Cl)cc(Cl)c2)C1=O [iprodione]
diseased area ratio to non-treated section (Sphaerotheca fuliginea; [3]): 60.0 | diseased area ratio to non-treated section (Sphaerotheca fuliginea; [4]): 45.0 | diseased area ratio to non-treated section (Sphaerotheca fuliginea; [5]): 45.0

C[C@H]1O[C@H](O[C@H]2[C@H](O)[C@@H](O)[C@@H](O)[C@H](O)[C@@H]2O)[C@@H](N)C[C@@H]1NC(=N)C(=O)O [kasugamycin]
diseased area ratio to non-treated section (Erysiphe graminis; fungicide (b) alone 50 ppm): 97.5 | diseased area ratio to non-treated section (Erysiphe graminis; fungicide (b) alone 500 ppm): 55.0

CO/N=C(/C(=O)OC)c1ccccc1COc1ccccc1C [kresoxim-methyl]
diseased area ratio to non-treated section (Erysiphe graminis; fungicide (b) alone 12.5 ppm): 4.9 | diseased area ratio to non-treated section (Erysiphe graminis; fungicide (b) alone 25 ppm): 1.8

CC#Cc1cc(C)nc(Nc2ccccc2)n1 [mepanipyrim]
diseased area ratio to non-treated section (Sphaerotheca fuliginea; partner fungicide alone 63 ppm): 0.5 | diseased area ratio to non-treated section (Sphaerotheca fuliginea; [3]): 0.5

C/C=C/C(=O)Oc1c(C(C)CCCCCC)cc([N+](=O)[O-])cc1[N+](=O)[O-] (stereo not drawn) [meptyldinocap]
diseased area ratio to non-treated section (experimental value) (Sphaerotheca fuliginea; single use at 3 ppm): 2.5

CC1(C)CCC(Cc2ccc(Cl)cc2)C1(O)Cn1cncn1 (stereo not drawn) [metconazole]
diseased area ratio to non-treated section (Erysiphe graminis; fungicide (b) alone 0.0075 ppm): 95.0 | diseased area ratio to non-treated section (Erysiphe graminis; fungicide (b) alone 0.03 ppm): 55.0

COc1cc(C)c(C(=O)c2c(OC)ccc(Br)c2C)c(OC)c1OC [metrafenone, 3′-bromo-2,3,4,6′-tetramethoxy-2′,6-dimethylbenzophenone]
diseased area ratio to non-treated section (Erysiphe graminis; fungicide (b) alone 0.0075 ppm): 100 | diseased area ratio to non-treated section (Erysiphe graminis; fungicide (b) alone 0.03 ppm): 35.0

O=C([O-])O.[K+] [potassium bicarbonate]
diseased area ratio to non-treated section (experimental value) (Sphaerotheca fuliginea; single use at 100 ppm): 25.0 | diseased area ratio to non-treated section (experimental value) (Sphaerotheca fuliginea; single use at 1000 ppm): 20.0

CC12CC1(C)C(=O)N(c1cc(Cl)cc(Cl)c1)C2=O (stereo not drawn) [procymidone]
diseased area ratio to non-treated section (Sphaerotheca fuliginea; [3]): 85.0 | diseased area ratio to non-treated section (Sphaerotheca fuliginea; [4]): 82.5 | diseased area ratio to non-treated section (Sphaerotheca fuliginea; [5]): 70.0

CCCOC(=O)NCCCN(C)C [propamocarb hydrochloride]
diseased area ratio to non-treated section (experimental value) (Sphaerotheca fuliginea; single use at 10 ppm): 95.0 | diseased area ratio to non-treated section (experimental value) (Sphaerotheca fuliginea; single use at 100 ppm): 95.0 | diseased area ratio to non-treated section (experimental value) (Sphaerotheca fuliginea; single use at 1000 ppm): 92.5

COC(=O)N(OC)c1ccccc1COc1ccn(-c2ccc(Cl)cc2)n1 [pyraclostrobin]
diseased area ratio to non-treated section (experimental value) (Sphaerotheca fuliginea; single use at 100 ppm): 100

Cc1cc(C)nc(Nc2ccccc2)n1 [pyrimethanil]
diseased area ratio to non-treated section (Sphaerotheca fuliginea; partner fungicide alone 25 ppm): 90.0

COC(=O)NC(=S)Nc1ccccc1NC(=S)NC(=O)OC [thiophanate-methyl]
diseased area ratio to non-treated section (Sphaerotheca fuliginea; partner fungicide alone 63 ppm): 75.0 | diseased area ratio to non-treated section (Sphaerotheca fuliginea; [3]): 65.0

COP(=S)(OC)Oc1c(Cl)cc(C)cc1Cl [tolclofosmethyl]
diseased area ratio to non-treated section (experimental value) (Sphaerotheca fuliginea; single use at 100 ppm): 80.0

CON=C(C(=O)OC)c1ccccc1CON=C(C)c1cccc(C(F)(F)F)c1 [trifloxystrobin]
diseased area ratio to non-treated section (Sphaerotheca fuliginea; partner fungicide alone 4 ppm): 85.0 | diseased area ratio to non-treated section (Sphaerotheca fuliginea; partner fungicide alone 200 ppm): 50.0 | diseased area ratio to non-treated section (experimental value) (Sphaerotheca fuliginea; single use at 4 ppm): 85.0 | diseased area ratio to non-treated section (experimental value) (Sphaerotheca fuliginea; single use at 200 ppm): 50.0

CCCOC/C(=N\c1ccc(Cl)cc1C(F)(F)F)n1ccnc1 [triflumizole]
diseased area ratio to non-treated section (Sphaerotheca fuliginea; partner fungicide alone 3 ppm): 85 | diseased area ratio to non-treated section (Sphaerotheca fuliginea; partner fungicide alone 12 ppm): 70

mancozeb
diseased area ratio to non-treated section (Sphaerotheca fuliginea; [3]): 50.0 | diseased area ratio to non-treated section (Sphaerotheca fuliginea; [4]): 31.3

polyoxins
diseased area ratio to non-treated section (Sphaerotheca fuliginea; [3]): 40.0 | diseased area ratio to non-treated section (Sphaerotheca fuliginea; [4]): 35.0

potassium phosphite
diseased area ratio to non-treated section (experimental value) (Sphaerotheca fuliginea; single use at 100 ppm): 85.0 | diseased area ratio to non-treated section (experimental value) (Sphaerotheca fuliginea; single use at 500 ppm): 80.0
